Patent US5925769A, “Acetylenic 1,5-diarylpyrazoles as antiinflammatory agents” (Ortho Pharmaceutical, Corp., priority 1998, dated 1999)

Assays:
CO [1] = biological target: T1, CO (Rattus norvegicus, UniProt Q63921); test: Procedure III: CO (PgD2) in intact RBL-1 cells; type: cell-based; conditions: calcium ionophore A 23187, read-out: Proc. III CO IC50
T1 construct: the supernatant was saved as the source of enzymes; endogenous in cells; host or cells: RBL-1 (rat basophilic leukemia) cells
T1 sequence (Q63921 27-602): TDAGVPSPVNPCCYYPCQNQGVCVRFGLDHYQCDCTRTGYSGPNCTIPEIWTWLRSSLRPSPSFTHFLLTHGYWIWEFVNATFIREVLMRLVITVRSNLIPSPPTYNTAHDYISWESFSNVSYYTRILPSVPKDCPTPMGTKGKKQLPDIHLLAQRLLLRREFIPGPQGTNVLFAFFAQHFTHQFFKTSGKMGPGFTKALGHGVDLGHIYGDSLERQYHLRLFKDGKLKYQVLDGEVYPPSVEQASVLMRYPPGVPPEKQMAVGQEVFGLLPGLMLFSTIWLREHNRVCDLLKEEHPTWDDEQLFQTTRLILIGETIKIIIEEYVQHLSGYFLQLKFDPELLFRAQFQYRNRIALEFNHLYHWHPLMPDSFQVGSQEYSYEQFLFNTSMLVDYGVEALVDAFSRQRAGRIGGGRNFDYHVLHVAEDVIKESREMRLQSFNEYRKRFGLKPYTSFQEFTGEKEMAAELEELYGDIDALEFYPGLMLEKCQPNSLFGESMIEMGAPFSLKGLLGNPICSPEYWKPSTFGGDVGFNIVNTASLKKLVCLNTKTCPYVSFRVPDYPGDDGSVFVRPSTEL
Method: (§1) The IC50 was determined using a curve fit in Cricket Graph (Computer Associated), which provided the equation of the regressed line used in the calculation.
(§2) In Procedure III, the ability to inhibit 5-LO and CO in intact RBL-1 cells was also evaluated. […] Cells were collected by centrifugation, washed once in HBSS, and resuspended at a concentration of 1×10^5 cells/mL. Cells were incubated in the presence of vehicle or drug then centrifuged at 800×g for 10 minutes at 4° C. The supernatant was removed by aspiration and the cells were resuspended in 0.5 mL of HBSS. […] The conversion of AA to 5-LO products was initiated by the addition of 10 μL (50 μCi) of 1-^14 C-AA. Products were isolated by acidification and extraction, followed by thin layer chromatography analysis as described above. Radioactive areas corresponding to authentic 5-LO (5-HETE) and CO (PgD2) products were quantitated by the Bioscan 2000 Imaging System and the IC50 was calculated as above.

5-LO [2] = biological target: T2, 5-LO (Rattus norvegicus, UniProt P12527); test: Procedure III: 5-LO (5-HETE) in intact RBL-1 cells; type: cell-based; conditions: calcium ionophore A 23187, read-out: Proc. III 5-LO IC50
T2 construct: the supernatant was saved as the source of enzymes; endogenous in cells; host or cells: RBL-1 (rat basophilic leukemia) cells
T2 sequence (P12527 1-673): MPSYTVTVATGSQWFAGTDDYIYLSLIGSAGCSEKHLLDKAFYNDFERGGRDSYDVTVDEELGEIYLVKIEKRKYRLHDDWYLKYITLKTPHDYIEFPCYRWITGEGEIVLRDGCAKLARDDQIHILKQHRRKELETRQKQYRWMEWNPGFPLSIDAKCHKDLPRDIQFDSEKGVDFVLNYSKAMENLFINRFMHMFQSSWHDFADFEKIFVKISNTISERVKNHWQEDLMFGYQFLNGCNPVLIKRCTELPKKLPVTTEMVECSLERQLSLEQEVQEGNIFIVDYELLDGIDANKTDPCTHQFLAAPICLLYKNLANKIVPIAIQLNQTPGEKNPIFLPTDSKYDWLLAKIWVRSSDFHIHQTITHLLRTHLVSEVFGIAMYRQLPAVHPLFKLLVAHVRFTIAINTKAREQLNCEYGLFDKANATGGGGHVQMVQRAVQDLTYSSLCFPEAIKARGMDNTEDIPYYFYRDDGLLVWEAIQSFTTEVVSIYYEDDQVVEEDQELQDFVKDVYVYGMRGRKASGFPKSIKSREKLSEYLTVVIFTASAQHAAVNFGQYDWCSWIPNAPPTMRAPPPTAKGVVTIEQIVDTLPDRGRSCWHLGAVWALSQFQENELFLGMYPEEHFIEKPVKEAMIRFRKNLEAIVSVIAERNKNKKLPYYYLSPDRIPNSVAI
Method: as §1, §2

[3] = biological target: T3, Sheep seminal vesicle (SSV) cyclooxygenase (Ovis aries, UniProt P05979); test: Procedure I: inhibition of sheep seminal vesicle (SSV) cyclooxygenase; type: biochemical; conditions: SSV cyclooxygenase; for IC50: read-out: Proc. I IC50; for inhibition at 10 µM: 20 min, @ 10 .quadrature.M, read-out: Proc. I % inhibition
T3 construct: Sheep seminal vesicle (SSV) cyclooxygenase (95% pure); purchased Biomol (Plymouth Meeting, PA); host or cells: sheep seminal vesicle
T3 sequence (P05979 25-600): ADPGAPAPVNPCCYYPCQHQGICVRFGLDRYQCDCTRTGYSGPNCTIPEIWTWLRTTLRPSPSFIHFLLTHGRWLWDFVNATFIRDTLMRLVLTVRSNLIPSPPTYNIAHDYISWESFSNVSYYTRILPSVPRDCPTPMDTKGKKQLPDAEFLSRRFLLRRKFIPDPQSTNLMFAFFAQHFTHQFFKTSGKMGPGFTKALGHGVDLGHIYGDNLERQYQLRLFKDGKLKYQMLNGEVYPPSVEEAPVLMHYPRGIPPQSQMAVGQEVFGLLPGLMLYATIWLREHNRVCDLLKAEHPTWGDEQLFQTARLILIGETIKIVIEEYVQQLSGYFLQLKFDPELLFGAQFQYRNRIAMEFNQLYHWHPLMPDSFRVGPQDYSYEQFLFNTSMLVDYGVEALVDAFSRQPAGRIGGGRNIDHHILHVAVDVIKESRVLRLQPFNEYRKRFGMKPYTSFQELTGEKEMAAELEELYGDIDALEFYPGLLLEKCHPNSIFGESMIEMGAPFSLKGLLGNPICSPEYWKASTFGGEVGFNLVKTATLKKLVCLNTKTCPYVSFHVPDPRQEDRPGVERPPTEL
Method: Procedure I was used to determine the ability of the compounds to inhibit cyclooxygenase. […] The enzyme was divided into 200 μL aliquots, snap frozen with liquid N2, and stored at -70° C. until immediately prior to use. […] The tubes were mixed on a vortex shaker, preincubated for 5 min at 37° C. prior to the initiation of the reaction. The reaction was started by the addition of [^14 C]-arachidonic acid (1-^14 C-AA, Amersham, Arlington Heights, Ill.) in 10 μL of methanol. Tubes were again vortexed and incubated in a water bath for 20 minutes after which the tubes were removed and the reaction stopped by acidification with the addition of 1 mL 2M formic acid. Lipophilic products were extracted with 3 mL chloroform and concentrated to dryness under N2. Each pellet was reconstituted with 40 μL of chloroform and spotted on a Whatman Silicon thin-layer chromatography plate and developed in a chromatography tank containing A-9 solvent (11:5:2:1 V:V:VV, ethyl acetate:trimethyl-pentane:acetic acid:double distilled-H2 O). Radioactive cyclooxygenase products (prostaglandin D2, prostaglandin E2, etc.) were measured using a Bioscan System 200 Imaging Scanner. Inhibition of enzyme activity was calculated by comparing the areas under the curve produced in the presence or absence of test compound.

CO [4] = biological target: T1, CO; test: Procedure II: CO activity in broken RBL-1 cells (homogenate supernatant); type: biochemical; conditions: RBL-1 broken cell supernatant; for inhibition at 10 µM: 20 min, @ 10 .quadrature.M, read-out: Proc. II CO % inhibition; for IC50: read-out: Proc. II CO IC50
Method: (§3) Procedure II was used to assess LO and CO activity. Rat basophilic leukemia cells (RBL-1; 5×10^7 viable cells/mL) were disrupted by homogenization on ice (four 20 sec bursts) with a Brinkman polytron. […] The homogenate was then centrifuged at 9,220×g for 48 minutes at 4° C. The pellet was discarded and the supernatant was saved as the source of enzymes. The supernatant was pre-incubated for five minutes at 37° C. in the presence of 2 mM of CaCl2 and compound or vehicle (1% DMSO). The conversion of AA into products by CO and LO was initiated by adding 10 μL (50 μCi) of 1-^14 C-AA to each tube and incubated at 37° C. for 20 minutes. The reaction was stopped by adjusting the pH of each sample to 3 to 3.5 with 2M formic acid. Samples were extracted with three volumes of chloroform to isolate the products of 5-LO formed during the reaction. Fractions were dried under nitrogen, then resuspended in 40 μL of chloroform and spotted onto silica gel HL plates. The plates were developed in A-9 solvent. The dried plates were analyzed using a Bioscan Imaging TLC scanner to determine the percentage of radiolabelled AA converted to 5-HETE (LO product) in each sample. The percentage of inhibition was calculated by:
(§4) [1-(5-HETE test)]/5-HETE control×100=% inhibition
as §1

5-LO [5] = biological target: T2, 5-LO; test: Procedure II: 5-LO activity (5-HETE) in broken RBL-1 cells (homogenate supernatant); type: biochemical; conditions: RBL-1 broken cell supernatant; for inhibition at 10 µM: 20 min, @ 10 .quadrature.M, read-out: Proc. II 5-LO % inhibition; for IC50: read-out: Proc. II 5-LO IC50
Method: as §3, §4, §1

Row | Structure (SMILES) | IC50 (CO [1]) | IC50 (5-LO [2]) | IC50 [3] | inhibition at 10 µM (CO [4]) | inhibition at 10 µM (5-LO [5]) | inhibition at 10 µM [3] | IC50 (CO [4]) | IC50 (5-LO [5])
1 | COc1ccc(-n2nc(C#CC(C)N(O)C(=O)c3cccnc3)cc2-c2ccc(C)cc2)cc1 (stereo not drawn) [Cpd 26] | 11.5 µM | 25.4 µM | 6 µM | 54% | 88% |  |  | 
2 | CCOC(=O)CCC(=O)N(O)C(C)C#Cc1cc(-c2ccc(C)cc2)n(-c2ccc(OC)cc2)n1 (stereo not drawn) [Cpd 22] | 10 µM | 10.1 µM | 2.93 µM | 100% | 97% |  |  | 
3 | COc1ccc(-n2nc(C#CC(C)N(O)C(=O)Cn3ccnc3)cc2-c2ccc(C)cc2)cc1 (stereo not drawn) [Cpd 43, N-(imidazol-1-yl)acetyl-N-(1-(1-(4-methoxyphenyl)-5-(4-methylphenyl)pyrazol-3-yl)-1-butyn-3-yl)hydroxylamine] | 3.6 µM | 38.7 µM | 10 µM | 13% | 67% |  |  | 
4 | CCOC(=O)C(=O)N(O)C(C)C#Cc1cc(-c2ccc(C)cc2)n(-c2ccc(OC)cc2)n1 (stereo not drawn) [Cpd 24] | 3.4 µM | 8.5 µM |  | 50% | 71% | 66% |  | 
5 | COc1ccc(-n2nc(C#CCN(O)C(=O)c3ccncc3)cc2-c2ccc(C)cc2)cc1 [Cpd 16] | 5.5 µM | 26.6 µM |  | 66% | 89% | 17% |  | 

Molecules with a lower IC50 (CO [1]), results first:

Row | IC50 (CO [1]) | IC50 (5-LO [2]) | IC50 [3] | inhibition at 10 µM (CO [4]) | inhibition at 10 µM (5-LO [5]) | inhibition at 10 µM [3] | IC50 (CO [4]) | IC50 (5-LO [5]) | Structure (SMILES)
6 | 1.7 µM | 36.8 µM | 6.1 µM | 86% | 100% |  |  |  | CCc1ccc(-c2cc(C#CC(C)N(O)C(=O)CCl)nn2-c2ccc(OC)cc2)cc1 (stereo not drawn) [Cpd 31]
7 | 1.6 µM | 12 µM |  | 58% | 81% | 14% |  |  | COc1ccc(-n2nc(C#CC(C)N(O)C(=O)N3CCOCC3)cc2-c2ccc(Cl)cc2)cc1 (stereo not drawn) [Cpd 10]
8 | 1.2 µM | 8.4 µM |  |  |  | 29% | 4.6 µM | 0.24 µM | COc1ccc(-n2nc(C#CC(C(C)C)N(O)C(N)=O)cc2-c2ccc(C)cc2)cc1 (stereo not drawn) [Cpd 4]
9 | 0.49 µM | 7.1 µM | 0.53 µM |  |  |  | 0.14 µM | 0.28 µM | COC(=O)N(O)C(C)C#Cc1cc(-c2ccc(C)cc2)n(-c2ccc(OC)cc2)n1 (stereo not drawn) [Cpd 27]
10 | 0.29 µM | 8.7 µM | 1.62 µM | 84% | 77% |  |  |  | COC(=O)N(O)C(C)C#Cc1cc(-c2ccc(Cl)cc2)n(-c2ccc(OC)cc2)n1 (stereo not drawn) [Cpd 41, N-methoxycarbony-N-(1-(5-(4-chlorophenyl)-1-(4-methoxyphenyl)pyrazol-3-yl)-1-butyn-3-yl)hydroxylamine]
11 | 0.19 µM | 23.5 µM | 0.42 µM |  |  |  | 0.05 µM | 1.66 µM | COc1ccc(-n2nc(C#CC(C)N(O)C(=O)C(F)(F)F)cc2-c2ccc(C)cc2)cc1 (stereo not drawn) [Cpd 23, N-trifluoroacetyl-N-(1-(1-(4-methoxyphenyl)-5-(4-methylphenyl)pyrazol-3-yl)-1-butyn-3-yl)hydroxylamine]
12 | 0.18 µM | 13.1 µM | 0.59 µM | 73% | 93% |  |  |  | CCc1ccc(-c2cc(C#CC(C)N(O)C(=O)C(C)C)nn2-c2ccc(OC)cc2)cc1 (stereo not drawn) [Cpd 30, N-isobutyryl-N-(1-(5-(4-ethylphenyl)-1-(4-methoxyphenyl)pyrazol-3-yl)-1-butyn-3-yl)hydroxylamine]
